Experimental data reported in paper PMC5502391 (Chemical Science, 2015).

Biological target: avidin-bound TOPI-5 (Gallus gallus, UniProt P02701)
Assay: Displacement assay, TOPI-5–avidin complex
Assay type: binding
Settings: complex 90 nM, compound 50 µM

Chain of avidin-bound TOPI-5 (P02701 25-152): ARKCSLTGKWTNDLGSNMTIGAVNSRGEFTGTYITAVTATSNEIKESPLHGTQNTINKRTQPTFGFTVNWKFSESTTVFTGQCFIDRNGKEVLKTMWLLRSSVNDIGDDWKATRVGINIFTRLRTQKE

Compound: O=C(O)CCCC[C@@H]1SC[C@@H]2NC(=O)N[C@@H]21 [biotin]
- displacement of avidin-bound TOPI-5: displacement
